# Reference: patent US20260049085A1, “CYCLIC COMPOUNDS AND METHODS OF USING SAME” (SCHRÖDINGER, INC., priority 2022, published 2026)
# Target: T1, full-length MALT1 protein His-MALT1(1-824) (Homo sapiens, UniProt Q9UDY8)
# T1 construct: full-length MALT1 protein His-MALT1(1-824); His (N); made in house; host or cells: baculovirus-infected insect cells
# T1 sequence (Q9UDY8 1-824): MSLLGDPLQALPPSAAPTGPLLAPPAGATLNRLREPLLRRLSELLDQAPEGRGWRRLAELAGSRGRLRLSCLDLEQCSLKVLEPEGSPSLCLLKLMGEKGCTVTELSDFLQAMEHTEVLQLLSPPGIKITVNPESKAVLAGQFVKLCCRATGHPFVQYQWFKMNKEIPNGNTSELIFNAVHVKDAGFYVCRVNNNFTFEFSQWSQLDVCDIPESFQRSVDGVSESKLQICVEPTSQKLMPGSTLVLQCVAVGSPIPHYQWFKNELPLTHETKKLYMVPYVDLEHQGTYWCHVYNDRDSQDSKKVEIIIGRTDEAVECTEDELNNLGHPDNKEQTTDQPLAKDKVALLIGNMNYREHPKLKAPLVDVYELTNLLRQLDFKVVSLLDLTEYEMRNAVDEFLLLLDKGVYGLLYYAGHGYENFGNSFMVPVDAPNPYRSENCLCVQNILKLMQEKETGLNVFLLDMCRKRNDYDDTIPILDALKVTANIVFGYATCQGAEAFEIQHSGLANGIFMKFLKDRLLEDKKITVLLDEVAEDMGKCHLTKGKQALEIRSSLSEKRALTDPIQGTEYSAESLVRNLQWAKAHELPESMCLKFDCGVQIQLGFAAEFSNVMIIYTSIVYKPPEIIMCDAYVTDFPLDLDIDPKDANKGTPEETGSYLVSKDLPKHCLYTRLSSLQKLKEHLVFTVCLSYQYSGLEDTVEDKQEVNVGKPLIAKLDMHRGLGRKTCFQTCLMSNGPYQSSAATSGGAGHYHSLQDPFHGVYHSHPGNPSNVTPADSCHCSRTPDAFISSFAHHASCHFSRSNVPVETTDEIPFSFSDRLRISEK
# Assay: MALT1 protease assay (Ac-LRSR-AMC tetrapeptide substrate, fluorescence)
# Format: biochemical
# Conditions: 1 nM MALT1, 25 μM Ac-LRSR-AMC, 2 h pre-incubation, 8 hr incubation at RT
# Description: MALT1 protease activity was assessed in an in vitro assay using a tetrapeptide as substrate and full-length MALT1 protein His-MALT1(1-824) purified from baculovirus-infected insect cells.
# The final assay buffer includes 1 nM of MALT1 full-length protein, 25 μM Ac-LRSR-AMC substrate, 50 mM Tris pH 7.5, 600 mM Sodium Citrate, 1 mM DTT, 1 mM EDTA, and 0.05% BSA in 384-well plate format using black microtiter square well plates (Optiplate 384-F, Perkin Elmer).
# Test compounds were dissolved in 100% DMSO stock of 10 mM, with final DMSO concentration of 0.1%. Test compounds were pre-incubated with MALT1 protein for 2 h at room temperature. Substrate was added after the pre-incubation and fluorescence signal was measured using Envision at excitation 355 nm and emission 460 nm after 8 hr incubation at RT.
# The fluorescence units were transformed to percentage of remaining activity by using the high control (HC, median of fluorescence signal from wells containing MALT1 protein, substrate, and DMSO) and low control (LC, median of fluorescence signal from wells with substrate only) with the formula below: […]
# IC50 and Hill coefficients were obtained using Graph Pad Prism (Graph Pad software, Inc, USA) with non-linear regression analysis.
row,IC50 [nM],Structure (SMILES)
1,10 to 100,"C[C@@]1(c2cncs2)C[C@H](C(=O)Nc2cnc(-n3nccn3)c(Cl)c2)c2cnc3cc(F)nn3c21 (single isomer, unassigned) [Example 38]"
2,10 to 100,"C[C@]1(c2cncs2)C[C@@H](C(=O)Nc2cnc(-n3nccn3)c(Cl)c2)c2cnc3cc(F)nn3c21 (single isomer, unassigned) [Example 39]"
3,≥ 1000,"Cn1cc([C@]2(C)C[C@@H](C(=O)Nc3cnc(OC(F)F)c(C#N)c3)c3cnc4cc(F)nn4c32)cn1 (single isomer, unassigned) [Example 41]"
4,100 to 1000,"Cn1cc([C@]2(C)C[C@H](C(=O)Nc3cnc(OC(F)F)c(C#N)c3)c3cnc4cc(F)nn4c32)cn1 (single isomer, unassigned) [Example 42]"
5,100 to 1000,"Cn1cc([C@@]2(C)C[C@@H](C(=O)Nc3cnc(OC(F)F)c(C#N)c3)c3cnc4cc(F)nn4c32)cn1 (single isomer, unassigned) [Example 43]"
6,10 to 100,"Cn1cc([C@@]2(C)C[C@H](C(=O)Nc3ccnc(C(F)(F)F)c3)c3cnc4cc(Cl)nn4c32)cn1 (single isomer, unassigned) [Example 44]"
7,≥ 1000,"Cn1cc([C@]2(C)C[C@@H](C(=O)Nc3ccnc(C(F)(F)F)c3)c3cnc4cc(Cl)nn4c32)cn1 (single isomer, unassigned) [Example 45]"
8,100 to 1000,"Cn1cc([C@]2(C)C[C@H](C(=O)Nc3ccnc(C(F)(F)F)c3)c3cnc4cc(Cl)nn4c32)cn1 (single isomer, unassigned) [Example 46]"
9,≥ 1000,"Cn1cc([C@@]2(C)C[C@@H](C(=O)Nc3ccnc(C(F)(F)F)c3)c3cnc4cc(Cl)nn4c32)cn1 (single isomer, unassigned) [Example 47]"
10,< 10,"CC(C)n1cc([C@@]2(C)C[C@H](C(=O)Nc3cnc(-n4nccn4)c(Cl)c3)c3cnc4cc(F)nn4c32)cn1 (single isomer, unassigned) [Example 48]"
11,≥ 1000,"CC(C)n1cc([C@]2(C)C[C@@H](C(=O)Nc3cnc(-n4nccn4)c(Cl)c3)c3cnc4cc(F)nn4c32)cn1 (single isomer, unassigned) [Example 49]"
12,10 to 100,"CC(C)n1cc([C@]2(C)C[C@H](C(=O)Nc3cnc(-n4nccn4)c(Cl)c3)c3cnc4cc(F)nn4c32)cn1 (single isomer, unassigned) [Example 50]"
13,100 to 1000,"CC(C)n1cc([C@@]2(C)C[C@@H](C(=O)Nc3cnc(-n4nccn4)c(Cl)c3)c3cnc4cc(F)nn4c32)cn1 (single isomer, unassigned) [Example 51]"
14,10 to 100,"Cn1cc([C@@]2(C)C[C@H](C(=O)Nc3cnc(OC(F)(F)F)c(C#N)c3)c3cnc4cc(F)nn4c32)cn1 (single isomer, unassigned) [Example 52]"
15,≥ 1000,"Cn1cc([C@]2(C)C[C@@H](C(=O)Nc3cnc(OC(F)(F)F)c(C#N)c3)c3cnc4cc(F)nn4c32)cn1 (single isomer, unassigned) [Example 53]"
16,100 to 1000,"Cn1cc([C@]2(C)C[C@H](C(=O)Nc3cnc(OC(F)(F)F)c(C#N)c3)c3cnc4cc(F)nn4c32)cn1 (single isomer, unassigned) [Example 54]"
17,100 to 1000,"Cn1cc([C@@]2(C)C[C@@H](C(=O)Nc3cnc(OC(F)(F)F)c(C#N)c3)c3cnc4cc(F)nn4c32)cn1 (single isomer, unassigned) [Example 55]"
18,10 to 100,"Cc1cc(NC(=O)[C@H]2C[C@](C)(c3cnn(C)c3)c3c2cnc2cc(F)nn32)cnc1-n1nccn1 (single isomer, unassigned) [Example 56, trans-2-fluoro-8-methyl-8-(1-methyl-1H-pyrazol-4-yl)-N-(5-methyl-6-(2H-1,2,3-triazol-2-yl)pyridin-3-yl)-7,8-dihydro-6H-cyclopenta[e]pyrazolo[1,5-a]pyrimidine-6-carboxamide]"
19,≥ 1000,"Cc1cc(NC(=O)[C@@H]2C[C@@](C)(c3cnn(C)c3)c3c2cnc2cc(F)nn32)cnc1-n1nccn1 (single isomer, unassigned) [Example 57, trans-2-fluoro-8-methyl-8-(1-methyl-1H-pyrazol-4-yl)-N-(5-methyl-6-(2H-1,2,3-triazol-2-yl)pyridin-3-yl)-7,8-dihydro-6H-cyclopenta[e]pyrazolo[1,5-a]pyrimidine-6-carboxamide]"

row,IC50 [nM],Structure (SMILES)
1,≥ 1000,"Cc1cc(NC(=O)[C@H]2C[C@@](C)(c3cnn(C)c3)c3c2cnc2cc(F)nn32)cnc1-n1nccn1 (single isomer, unassigned) [Example 58]"
2,≥ 1000,"Cc1cc(NC(=O)[C@@H]2C[C@](C)(c3cnn(C)c3)c3c2cnc2cc(F)nn32)cnc1-n1nccn1 (single isomer, unassigned) [Example 59]"
3,10 to 100,"Cc1cc(NC(=O)[C@H]2C[C@](C)(c3cnn(C)c3)c3c2cnc2cc(F)nn32)cnc1OC(F)F (single isomer, unassigned) [Example 60]"
4,≥ 1000,"Cc1cc(NC(=O)[C@@H]2C[C@@](C)(c3cnn(C)c3)c3c2cnc2cc(F)nn32)cnc1OC(F)F (single isomer, unassigned) [Example 61]"
5,≥ 1000,"Cc1cc(NC(=O)[C@H]2C[C@@](C)(c3cnn(C)c3)c3c2cnc2cc(F)nn32)cnc1OC(F)F (single isomer, unassigned) [Example 62]"
6,≥ 1000,"Cc1cc(NC(=O)[C@@H]2C[C@](C)(c3cnn(C)c3)c3c2cnc2cc(F)nn32)cnc1OC(F)F (single isomer, unassigned) [Example 63]"
7,10 to 100,"Cn1nccc1[C@@]1(C)C[C@H](C(=O)Nc2cnc(-n3nccn3)c(Cl)c2)c2cnc3cc(F)nn3c21 (single isomer, unassigned) [Example 64]"
8,≥ 1000,"Cn1nccc1[C@]1(C)C[C@@H](C(=O)Nc2cnc(-n3nccn3)c(Cl)c2)c2cnc3cc(F)nn3c21 (single isomer, unassigned) [Example 65]"
9,100 to 1000,"Cn1nccc1[C@]1(C)C[C@H](C(=O)Nc2cnc(-n3nccn3)c(Cl)c2)c2cnc3cc(F)nn3c21 (single isomer, unassigned) [Example 66]"
10,≥ 1000,"Cn1nccc1[C@@]1(C)C[C@@H](C(=O)Nc2cnc(-n3nccn3)c(Cl)c2)c2cnc3cc(F)nn3c21 (single isomer, unassigned) [Example 67]"
11,≥ 1000,"Cn1ccc([C@]2(C)C[C@@H](C(=O)Nc3cnc(OC(F)F)c(C#N)c3)c3cnc4cc(F)nn4c32)n1 (single isomer, unassigned) [Example 69]"
12,100 to 1000,"Cn1ccc([C@]2(C)C[C@H](C(=O)Nc3cnc(OC(F)F)c(C#N)c3)c3cnc4cc(F)nn4c32)n1 (single isomer, unassigned) [Example 70]"
13,≥ 1000,"Cn1ccc([C@@]2(C)C[C@@H](C(=O)Nc3cnc(OC(F)F)c(C#N)c3)c3cnc4cc(F)nn4c32)n1 (single isomer, unassigned) [Example 71]"
14,< 10,"C[C@]1(c2cnn(C3CC3)c2)C[C@H](C(=O)Nc2cnc(OC(F)F)c(C#N)c2)c2cnc3cc(F)nn3c21 (single isomer, unassigned) [Example 72]"
15,≥ 1000,"C[C@@]1(c2cnn(C3CC3)c2)C[C@@H](C(=O)Nc2cnc(OC(F)F)c(C#N)c2)c2cnc3cc(F)nn3c21 (single isomer, unassigned) [Example 73]"
16,10 to 100,"C[C@@]1(c2cnn(C3CC3)c2)C[C@H](C(=O)Nc2cnc(OC(F)F)c(C#N)c2)c2cnc3cc(F)nn3c21 (single isomer, unassigned) [Example 74]"
17,100 to 1000,"C[C@]1(c2cnn(C3CC3)c2)C[C@@H](C(=O)Nc2cnc(OC(F)F)c(C#N)c2)c2cnc3cc(F)nn3c21 (single isomer, unassigned) [Example 75]"
18,< 10,"Cn1ccc([C@@]2(C)C[C@H](C(=O)Nc3cnc(-n4nccn4)c(Cl)c3)c3cnc4cc(Cl)nn4c32)n1 (single isomer, unassigned) [Example 76]"
19,≥ 1000,"Cn1ccc([C@]2(C)C[C@@H](C(=O)Nc3cnc(-n4nccn4)c(Cl)c3)c3cnc4cc(Cl)nn4c32)n1 (single isomer, unassigned) [Example 77]"
